Experimental data: patent publication US20200270265A1, “TETRACYCLIC PYRIDONE COMPOUNDS AS ANTIVIRALS” (Novartis AG, priority 2016, published 2020)

How the values were obtained:
Assay type in all cases: in vivo
[1] = Pharmacokinetics in mice (iv and PO); conditions: iv 1.0 mg/kg, PO 2.0 mg/kg
[2] = Pharmacokinetics in rat (iv and PO); conditions: iv 1.0 mg/kg, PO 2.0 mg/kg
[3] = Pharmacokinetics in dog (iv and PO); conditions: iv 0.5 mg/kg, PO 1.0 mg/kg

| Structure (SMILES) | Oral BA [1] | T1/2term [1] | Oral BA [2] | T1/2term [2] | Oral BA [3] | T1/2term [3] |
| --- | --- | --- | --- | --- | --- | --- |
| COCCCOc1cc2c(cc1OC)-c1cc(=O)c(C(=O)O)cn1[C@H]1[C@@H]2CCC1(C)C [Compound 1.1, (3aS,12bR)-10-methoxy-11-(3-methoxypropoxy)-3,3-dimethyl-7-oxo-1,2,3,3a,7,12b-hexahydrocyclopenta[c]pyrido[2,1-a]isoquinoline-6-carboxylic acid] | 59 % F | 1.6 h | 97 % F | 2.4 h | 93 % F | 5.9 h |
| COCCCOc1cc2c(cc1OC)-c1c(F)c(=O)c(C(=O)O)cn1[C@H]1[C@@H]2CCC1(C)C [Compound 3.1, (3aS,12bR)-8-fluoro-10-methoxy-11-(3-methoxypropoxy)-3,3-dimethyl-7-oxo-1,2,3,3a,7,12b-hexahydrocyclopenta[c]pyrido[2,1-a]isoquinoline-6-carboxylic acid] | 87 % F | 3.8 h | 57 % F | 9.2 h | 96 % F | 7.2 h |
| COCCCOc1cc2c(cc1OC)-c1cc(=O)c(C(=O)O)cn1[C@H]1[C@@H]2OCC1(C)C [Compound 4.1, (3aR,12bR)-10-methoxy-11-(3-methoxypropoxy)-3,3-dimethyl-7-oxo-3,3a,7,12b-tetrahydro-2H-furo[3,2-c]pyrido[2,1-a]isoquinoline-6-carboxylic acid] | 100 % F | 1.8 h | 65 % F | 1.2 h | 94 % F | – |
